The text below walks through data of patent US20110237606A1, “3-Deazaneplanocin Derivatives” (AGENCY OF SCIENCE, TECHNOLOGY AND RESEARCH, priority 2008, published 2011).

One assay has as its system HCT115 ER-E2F1 cells. The assay is described as follows: E2F1-induced apoptosis assay (ER-E2F1 activated by 4-OHT), FACS subG1. It counts as cell-based. As to conditions: for E2F1 Induced apoptosis % Apoptosis: without 4-OHT (value before the parentheses), 'No activity'; for E2F1 Induced apoptosis (+4-OHT) % Apoptosis: with 4-OHT (value in parentheses). The source says:
Two assays were used to measure the compound's activity in induce apoptosis. The first assay measures the activity of compound to activate E2F1-induced apoptosis. In this assay, transcription factor E2F1 was engineered with ER receptor ligand binding domain. Addition of 4-OHT will be able to activate ER-E2F1 complex activity.
Fluorescence activated cell sorting (FACS) also known as flow cytometry is the technique used to determine apoptosis in this set of experiments. Apoptosis is indicated by cell populations with DNA content in the subG1 range. To determine the activity of these compounds, the inventors used HCT115 ER-E2F1 cells to determine the activity of the compound in inducing E2F1-dependent apoptosis. In this assay, addition of 4-OHT ligand will activate E2F1. DZNep has been show previously to activate OHT-induced apoptosis in this system.

Another assay relates to colon cancer cells. Put plainly: Apoptosis induction in combination with histone deacetylase inhibitor TSA. It counts as cell-based. As to conditions: 48 h. The source says: The compound may show activity to activate E2F1-induced apoptosis of at least about 15%, or at least about 20 or 25%, or about 15 to 25%, 15 to 30%, 15 to 20% or 20 to 25%. In this context, transcription factor E2F1, which is involved in the action of tumour suppressing proteins, was engineered with ER receptor ligand binding domain. (ER receptor is a nuclear hormone type of intracellular oestrogen receptor.) The compound may show activity to activate E2F1-induced apoptosis in the presence of 4-OHT of at least about 25% or of at least about 30, 40, 50, 60, 70 or 80%, or of about 25 to about 80%, or about 30 to 80, 50 to 80, 60 to 80 or 50 to 70%, e.g. about 25, 30, 35, 40, 45, 50, 55, 60, 65, 70, 75, 80 or 85%. 4-OHT is 4-hydroxytamoxifen, an anti-estrogenic metabolite of tamoxifen with a much higher affinity for oestrogen receptors than tamoxifen itself. The compound may show apoptosis induction in colon cancer cells with histone deacetylase inhibitor TSA (Trichostatin A) of at least about 40%, or at least about 50, 60, 70 or 80%, or about 40 to about 90%, or about 50 to 90, 70 to 90, 40 to 60 or 50 to 80%, e.g. about 40, 50, 60, 70, 80 or 90%. It may be capable of inhibiting the function of Polycomb repressive complex 2 (PRC2) proteins. In this context, activity % refers to the percentage of cell undergoing apoptosis (death) under the combination drug treatment of DZNep analogue with TSA for 48 h.
The second assay was designed to measure synergistic effect of new compounds with histone deacetylase inhibitor TSA for apoptosis induction in colon cancer cells. DZNep is known to synergy with TSA to induce strong apoptosis in colon cancer cells ((Jiang et al., Cancer Cell, 13, 529-541, 2008). Again the new compounds are compared with DZNep in the context of inducing apoptosis with TSA. Assays were conducted in accordance with Jiang et al (above).

Where a name gives a salt, the structure may show the parent alone.

As to `CC1(C)O[C@@H]2[C@H](O1)C(CO)=C[C@H]2n1cnc2c(N)ncnc21` [Compound 28], in the assay with HCT115 ER-E2F1 cells, the “E2F1 Induced apoptosis % Apoptosis” value is given as “No activity”. Further, the “Combination with HDAC inhibitor TSA % Apoptosis” value in the assay with colon cancer cells is “No activity”.
On to `Nc1ncnc2c1ncn2C1C=CCC1` (racemic) [Compound 29, (±)-9-(cyclopent-2-enyl)-9H-purin-6-amine], for which the “E2F1 Induced apoptosis % Apoptosis” value with HCT115 ER-E2F1 cells is reported as “No activity”. For the same molecule, in the assay on colon cancer cells, the “Combination with HDAC inhibitor TSA % Apoptosis” value is listed as “No activity”.
For the molecule `O=c1[nH]cnc2c1ncn2[C@@H]1C=C(CO)[C@@H](O)[C@H]1O` [Compound 11], the “E2F1 Induced apoptosis % Apoptosis” value in the assay with HCT115 ER-E2F1 cells is “No activity”. In the assay with colon cancer cells, the “Combination with HDAC inhibitor TSA % Apoptosis” value is “No activity”.
Consider `Cc1cn([C@@H]2C=C(CO)[C@@H](O)[C@H]2O)c(=O)n(C(=O)c2ccccc2)c1=O` [Compound 9], for which the “E2F1 Induced apoptosis % Apoptosis” value in the assay on HCT115 ER-E2F1 cells is given as “No activity”. Further, the “Combination with HDAC inhibitor TSA % Apoptosis” value in the assay with colon cancer cells was “No activity”.
As for `O=C(c1ccccc1)n1c(=O)ccn([C@@H]2C=C(CO)[C@@H](O)[C@H]2O)c1=O` [Compound 8], the “E2F1 Induced apoptosis % Apoptosis” value with HCT115 ER-E2F1 cells is on record as “No activity”. Also, the “Combination with HDAC inhibitor TSA % Apoptosis” value in the assay with colon cancer cells was “No activity”.
For `Nc1nccc2c1ncn2[C@@H]1C=C(CO)[C@@H](O)[C@H]1O` [Compound 22, 3-Deazaneplanocin A, reference compound], the “E2F1 Induced apoptosis (+4-OHT) % Apoptosis” value in the assay on HCT115 ER-E2F1 cells is 65%.
For the molecule `COC(=O)c1cn([C@@H]2C=C(COC(c3ccccc3)(c3ccccc3)c3ccccc3)[C@H]3OC(C)(C)O[C@H]32)cn1` [Compound 17], the “E2F1 Induced apoptosis % Apoptosis” value with HCT115 ER-E2F1 cells is “No activity”. Further, in the assay with colon cancer cells, the “Combination with HDAC inhibitor TSA % Apoptosis” value is “No activity”.
`Nc1ncnc2c1ncn2[C@@H]1CC[C@@H](O)[C@H]1O` (racemic) [Compound 32, (±)-(1R,2S,3R)-3-(6-Amino-9H-purin-9-yl)-1,2-cyclopentanediol hydrochloride]: in the assay on HCT115 ER-E2F1 cells, the “E2F1 Induced apoptosis (+4-OHT) % Apoptosis” value came out at 44%.
`OCC1=C[C@@H](n2cnc3ccnc(Cl)c32)[C@H](O)[C@@H]1O` [Compound 4]: the “E2F1 Induced apoptosis % Apoptosis” value in the assay on HCT115 ER-E2F1 cells is reported as “No activity”. Moreover, in the assay on colon cancer cells, the “Combination with HDAC inhibitor TSA % Apoptosis” value is “No activity”.
Consider `CC1(C)O[C@@H]2[C@H](O1)C(COC(c1ccccc1)(c1ccccc1)c1ccccc1)=C[C@@H]2O` [Compound 15], for which the “E2F1 Induced apoptosis % Apoptosis” value in the assay on HCT115 ER-E2F1 cells is on record as “No activity”. The “Combination with HDAC inhibitor TSA % Apoptosis” value with colon cancer cells was “No activity”.
As for `CC1(C)O[C@@H]2[C@H](O1)C(COC(c1ccccc1)(c1ccccc1)c1ccccc1)=C[C@H]2n1cnc2cncc(Cl)c21` [Compound 2], in the assay on HCT115 ER-E2F1 cells, the “E2F1 Induced apoptosis % Apoptosis” value was “No activity”.
Regarding `CC1(C)O[C@@H]2[C@H](O1)C(CO)=C[C@H]2n1cnc2c(N)nccc21` [Compound 23, 2′,3′-O-Isopropylidene-3-deazaneplanocin A], the “E2F1 Induced apoptosis (+4-OHT) % Apoptosis” value in the assay with HCT115 ER-E2F1 cells was determined as 25%. The “Combination with HDAC inhibitor TSA % Apoptosis” value with colon cancer cells was “No activity”.
For `OCC1=C[C@@H](n2cnc3c(Cl)nccc32)[C@H](O)[C@@H]1O` [Compound 3], the “E2F1 Induced apoptosis % Apoptosis” value with HCT115 ER-E2F1 cells was “No activity”. The “Combination with HDAC inhibitor TSA % Apoptosis” value in the assay with colon cancer cells is given as “No activity”.
Take `CC1(C)O[C@@H]2[C@H](O1)C(COC(c1ccccc1)(c1ccccc1)c1ccccc1)=C[C@H]2n1cnc2c(N)ncnc21` [Compound 16]: in the assay on HCT115 ER-E2F1 cells, the “E2F1 Induced apoptosis % Apoptosis” value is “No activity”. Besides, the “Combination with HDAC inhibitor TSA % Apoptosis” value in the assay with colon cancer cells is listed as “No activity”.
`NC(=O)c1ncn([C@@H]2C=C(CO)[C@@H](O)[C@H]2O)n1` [Compound 13]: the “E2F1 Induced apoptosis % Apoptosis” value in the assay with HCT115 ER-E2F1 cells was “No activity”. Moreover, the “Combination with HDAC inhibitor TSA % Apoptosis” value with colon cancer cells was “No activity”.
For the molecule `CC1(C)O[C@@H]2[C@H](O1)C(COC(c1ccccc1)(c1ccccc1)c1ccccc1)=C[C@H]2n1cnc2c(Cl)nccc21` [Compound 1], the “E2F1 Induced apoptosis % Apoptosis” value in the assay on HCT115 ER-E2F1 cells is “No activity”.
With `CC1(C)O[C@@H]2[C@H](O1)C(COC(c1ccccc1)(c1ccccc1)c1ccccc1)=C[C@H]2n1ccc(=O)n(C(=O)c2ccccc2)c1=O` [Compound 19], the “E2F1 Induced apoptosis % Apoptosis” value with HCT115 ER-E2F1 cells is recorded as “No activity”. Besides, the “Combination with HDAC inhibitor TSA % Apoptosis” value in the assay with colon cancer cells is reported as “No activity”.
Turning to `Cc1cn([C@@H]2C=C(CO)[C@@H](O)[C@H]2O)c(=O)[nH]c1=O` [Compound 10], the “E2F1 Induced apoptosis % Apoptosis” value with HCT115 ER-E2F1 cells is reported as “No activity”. In addition, the “Combination with HDAC inhibitor TSA % Apoptosis” value in the assay with colon cancer cells was “No activity”.
`COC(=O)c1cn([C@@H]2C=C(CO)[C@@H](O)[C@H]2O)cn1` [Compound 6]: the “E2F1 Induced apoptosis % Apoptosis” value in the assay with HCT115 ER-E2F1 cells is given as “No activity”. In the assay on colon cancer cells, the “Combination with HDAC inhibitor TSA % Apoptosis” value is “No activity”.
On to `Cc1cn([C@@H]2C=C(COC(c3ccccc3)(c3ccccc3)c3ccccc3)[C@H]3OC(C)(C)O[C@H]32)c(=O)n(C(=O)c2ccccc2)c1=O` [Compound 18], for which, in the assay with HCT115 ER-E2F1 cells, the “E2F1 Induced apoptosis % Apoptosis” value is “No activity”. In the assay with colon cancer cells, the “Combination with HDAC inhibitor TSA % Apoptosis” value is on record as “No activity”.
For the molecule `CC1(C)O[C@H]2[C@H](CC[C@H]2n2cnc3c(N)ncnc32)O1` (racemic) [Compound 31, (±)-9-(2,2-dimethyl-tetrahydro-3aH-cyclopenta[d][1,3]dioxol-4-yl)-9H-purin-6-amine], in the assay on HCT115 ER-E2F1 cells, the “E2F1 Induced apoptosis % Apoptosis” value was “No activity”. In the assay on colon cancer cells, the “Combination with HDAC inhibitor TSA % Apoptosis” value is “No activity”.
Regarding `Nc1ncnc2c1ncn2[C@@H]1C=C(COC(=O)c2ccccc2)[C@@H](O)[C@H]1O` [Compound 27, ((3R,4S,5R)-3-(6-amino-9H-purin-9-yl)-4,5-dihydroxycyclopent-1-enyl)methyl benzoate hydrochloride], in the assay on HCT115 ER-E2F1 cells, the “E2F1 Induced apoptosis (+4-OHT) % Apoptosis” value is listed as 30%.
With `CC1(C)O[C@@H]2[C@H](O1)C(COC(c1ccccc1)(c1ccccc1)c1ccccc1)=C[C@H]2n1cnc2c(Cl)ncnc21` [Compound 20], in the assay with HCT115 ER-E2F1 cells, the “E2F1 Induced apoptosis % Apoptosis” value is reported as “No activity”. Further, the “Combination with HDAC inhibitor TSA % Apoptosis” value with colon cancer cells is given as “No activity”.
With `Nc1ncnc2c1ncn2[C@@H]1CC[C@H](O)[C@@H]1O` (racemic) [Compound 33, (±)-(1R,2S,3S)-3-(6-Amino-9H-purin-9-yl)-1,2-cyclopentanediol hydrochloride], the “E2F1 Induced apoptosis % Apoptosis” value in the assay on HCT115 ER-E2F1 cells is “No activity”. Also, the “Combination with HDAC inhibitor TSA % Apoptosis” value with colon cancer cells is recorded as “No activity”.
With `CC1=C[C@@H](n2cnc3c(N)ncnc32)[C@H](O)[C@@H]1O` [Compound 26, (1S,2R,5R)-5-(6-amino-9H-purin-9-yl)-3-methylcyclopent-3-ene-1,2-diol hydrochloride], in the assay with HCT115 ER-E2F1 cells, the “E2F1 Induced apoptosis (+4-OHT) % Apoptosis” value came out at 40%.
On to `COC(=O)c1ncn([C@@H]2C=C(CO)[C@@H](O)[C@H]2O)n1` [Compound 7], for which the “E2F1 Induced apoptosis % Apoptosis” value in the assay with HCT115 ER-E2F1 cells was “No activity”. Further, the “Combination with HDAC inhibitor TSA % Apoptosis” value with colon cancer cells is on record as “No activity”.
For the molecule `O=c1ccn([C@@H]2C=C(CO)[C@@H](O)[C@H]2O)c(=O)[nH]1` [Compound 12], the “E2F1 Induced apoptosis % Apoptosis” value in the assay with HCT115 ER-E2F1 cells was “No activity”. In the assay with colon cancer cells, the “Combination with HDAC inhibitor TSA % Apoptosis” value is recorded as “No activity”.
Take `COC(=O)c1cn([C@@H]2C=C(CO)[C@@H](O)[C@H]2O)nn1` [Compound 5]: the “E2F1 Induced apoptosis % Apoptosis” value with HCT115 ER-E2F1 cells is listed as “No activity”. Besides, the “Combination with HDAC inhibitor TSA % Apoptosis” value in the assay on colon cancer cells is given as “No activity”.
Turning to `Cl.Nc1nccc2c1ncn2[C@@H]1C[C@H](CO)[C@@H](O)[C@H]1O` [Compound 24, 3-Deazaaristeromycin hydrochloride], in the assay with HCT115 ER-E2F1 cells, the “E2F1 Induced apoptosis (+4-OHT) % Apoptosis” value came to 60% and the “E2F1 Induced apoptosis % Apoptosis” value turned out to be 28%. Moreover, the “Combination with HDAC inhibitor TSA % Apoptosis” value with colon cancer cells amounted to 70%.
`CC1(C)O[C@H]2[C@H](n3cnc4c(N)ncnc43)CC[C@H]2O1` (racemic) [Compound 30, (±)-9-(2,2-dimethyl-tetrahydro-3aH-cyclopenta[d][1,3]dioxol-4-yl)-9H-purin-6-amine]: the “E2F1 Induced apoptosis % Apoptosis” value in the assay on HCT115 ER-E2F1 cells is “No activity”. In addition, the “Combination with HDAC inhibitor TSA % Apoptosis” value with colon cancer cells is “No activity”.
Turning to `NC(=O)c1cn([C@@H]2C=C(CO)[C@@H](O)[C@H]2O)cn1` [Compound 14], in the assay on HCT115 ER-E2F1 cells, the “E2F1 Induced apoptosis % Apoptosis” value is on record as “No activity”. Further, in the assay on colon cancer cells, the “Combination with HDAC inhibitor TSA % Apoptosis” value was “No activity”.
